From ChEMBL document CHEMBL1137308 (J Med Chem, 2006)
Converted amounts (≈) assume the structure as drawn. The source made the active and inactive calls. No cut-off for these calls is given here.

Assays:
Staphylococcus aureus [1] = assay: Antibacterial activity against Staphylococcus aureus SA2554; type: functional
Staphylococcus aureus [2] = assay: Antibacterial activity against Staphylococcus aureus SA2558; type: functional
Staphylococcus aureus [3] = assay: Antibacterial activity against methicillin-resistant Staphylococcus aureus SA1417; type: functional
Staphylococcus aureus [4] = assay: Antibacterial activity against ciprofolxacin-resistant Staphylococcus aureus SA2017; type: functional
Klebsiella pneumoniae [5] = assay: Antibacterial activity against Klebsiella pneumonia KP2; type: functional
Klebsiella pneumoniae [6] = assay: Antibacterial activity against Klebsiella pneumonia ESBL KP3729; type: functional
Providencia rettgeri = assay: Antibacterial activity against Providencia rettgeri PR9; type: functional
Pseudomonas aeruginosa = assay: Antibacterial activity against Pseudomonas aeruginosa PA7; type: functional
Escherichia coli [7] = assay: Antibacterial activity against Escherichia coli EC2026; type: functional
Escherichia coli [8] = assay: Antibacterial activity against Escherichia coli EC2549; type: functional
Haemophilus influenzae = assay: Antibacterial activity against Haemophilus influenzae HI3542; type: functional
Moraxella catarrhalis = assay: Antibacterial activity against Moraxella catarrhalis BC-3531; type: functional
Staphylococcus aureus [9] = assay: Antibacterial activity against Staphylococcus aureus SA1417; type: functional
Staphylococcus aureus [10] = assay: Antibacterial activity against Staphylococcus aureus UC-76 SA-1; type: functional
Staphylococcus aureus [11] = assay: Antibacterial activity against Staphylococcus aureus SA2552; type: functional
Enterococcus faecalis [12] = assay: Antibacterial activity against Enterococcus faecalis MGH2 EF1-1; type: functional
Enterococcus faecalis [13] = assay: Antibacterial activity against Enterococcus faecalis EF1-3524; type: functional
Enterococcus faecium = assay: Antibacterial activity against vancomycin-resistant Enterococcus faecium EF4-3489; type: functional
Streptococcus pneumoniae [14] = assay: Antibacterial activity against Streptococcus pneumonia SVI SP3; type: functional
Streptococcus pneumoniae [15] = assay: Antibacterial activity against quinolone-resistant Streptococcus pneumonia SP3763; type: functional
Streptococcus pyogenes [16] = assay: Antibacterial activity against Streptococcus pyogenes C203 SP1-1; type: functional
Escherichia coli [17] = assay: Antibacterial activity against Escherichia coli EC1-10; type: functional
Escherichia coli [18] = assay: Inhibition of Escherichia coli DNA synthesis; type: functional, organism-based
Streptococcus pyogenes [19] = assay: Antibacterial activity against Streptococcus pyogenes […]; type: functional
Enterococcus faecalis [20] = assay: Antibacterial activity against Enterococcus faecalis […]; type: functional
Streptococcus pyogenes [21] = assay: Activity against po dosed mouse infected with Streptococcus pyogenes; type: functional; conditions: read-out: PD50
Enterococcus faecalis [22] = assay: Activity against po dosed mouse infected with Enterococcus faecalis; type: functional; conditions: read-out: PD50
Streptococcus pyogenes [23] = assay: Activity against sc dosed mouse infected with Streptococcus pyogenes; type: functional; conditions: read-out: PD50
Enterococcus faecalis [24] = assay: Activity against sc dosed mouse infected with Enterococcus faecalis; type: functional; conditions: read-out: PD50
[25] = biological target: T1, DNA gyrase (Escherichia coli) (UniProt P0AES6+P0AES4); assay: Ability to inhibit DNA supercoiling activity of Escherichia coli gyrase; type: functional
[26] = biological target: T1, DNA gyrase (Escherichia coli); assay: Displacement of [14C]ciprofloxacin from Escherichia coli gyrase; type: protein-complex assay
DNA gyrase = DNA gyrase (Escherichia coli, UniProt P0AES4+P0AES6); assay: Inhibition of Escherichia coli gyrase; type: functional

| SMILES | MIC (Staphylococcus aureus [1]) | MIC (Staphylococcus aureus [2]) | MIC (Staphylococcus aureus [3]) | MIC (Staphylococcus aureus [4]) | MIC (Klebsiella pneumoniae [5]) | MIC (Klebsiella pneumoniae [6]) | MIC (Providencia rettgeri) | MIC (Pseudomonas aeruginosa) | MIC (Escherichia coli [7]) | MIC (Haemophilus influenzae) | MIC (Moraxella catarrhalis) | MIC (Staphylococcus aureus [9]) | MIC (Staphylococcus aureus [10]) | MIC (Staphylococcus aureus [11]) | MIC (Enterococcus faecalis [12]) | MIC (Enterococcus faecalis [13]) | MIC (Enterococcus faecium) | MIC (Streptococcus pneumoniae [14]) | MIC (Streptococcus pneumoniae [15]) | MIC (Streptococcus pyogenes [16]) | further results |
| --- | --- | --- | --- | --- | --- | --- | --- | --- | --- | --- | --- | --- | --- | --- | --- | --- | --- | --- | --- | --- | --- |
| COc1c(N2CCNC(C)C2)c(F)cc2c(=O)c(C(=O)O)cn(C3CC3)c12 (stereo not drawn) [GATIFLOXACIN] | 0.125 µg/mL (≈ 0.333 µM) | 4 µg/mL (≈ 10.7 µM) | 0.125 µg/mL (≈ 0.333 µM) | 8 µg/mL (≈ 21.3 µM) | 0.06 µg/mL (≈ 0.16 µM) | 8 µg/mL (≈ 21.3 µM) | 0.5 µg/mL (≈ 1.33 µM) | 0.5 µg/mL (≈ 1.33 µM) | < 0.06 µg/mL | 0.015 µg/mL (≈ 0.04 µM) | 0.03 µg/mL (≈ 0.0799 µM) | 0.125 µg/mL (≈ 0.333 µM) | 0.03 µg/mL (≈ 0.0799 µM) | 0.125 µg/mL (≈ 0.333 µM) | 0.5 µg/mL (≈ 1.33 µM) | 16 µg/mL (≈ 42.6 µM) | 32 µg/mL (≈ 85.2 µM) | 0.125 µg/mL (≈ 0.333 µM) | 4 µg/mL (≈ 10.7 µM) | 0.5 µg/mL (≈ 1.33 µM) | MIC (Escherichia coli [8]): < 0.06 µg/mL; MIC (Escherichia coli [17]): 0.06 µg/mL (≈ 0.16 µM) |
| C[C@H]1NCc2cc(-c3ccc4c(=O)c(C(=O)O)cn(C5CC5)c4c3OC(F)F)ccc21 [GARENOXACIN] | 0.03 µg/mL (≈ 0.0704 µM) | 2 µg/mL (≈ 4.69 µM) | 0.03 µg/mL (≈ 0.0704 µM) | 2 µg/mL (≈ 4.69 µM) | 0.06 µg/mL (≈ 0.141 µM) | 32 µg/mL (≈ 75 µM) | 0.06 µg/mL (≈ 0.141 µM) | 1 µg/mL (≈ 2.35 µM) | 0.03 µg/mL (≈ 0.0704 µM) | 0.015 µg/mL (≈ 0.0352 µM) | 0.03 µg/mL (≈ 0.0704 µM) | 0.06 µg/mL (≈ 0.141 µM) | 0.015 µg/mL (≈ 0.0352 µM) | 0.03 µg/mL (≈ 0.0704 µM) | 0.125 µg/mL (≈ 0.293 µM) | 4 µg/mL (≈ 9.38 µM) | 8 µg/mL (≈ 18.8 µM) | 0.03 µg/mL (≈ 0.0704 µM) | 1 µg/mL (≈ 2.35 µM) | 0.06 µg/mL (≈ 0.141 µM) | MIC (Escherichia coli [8]): 0.008 µg/mL (≈ 0.0188 µM); MIC (Escherichia coli [17]): 0.25 µg/mL (≈ 0.586 µM) |
| C[C@H]1COc2c(N3CCN(C)CC3)c(F)cc3c(=O)c(C(=O)O)cn1c23.C[C@H]1COc2c(N3CCN(C)CC3)c(F)cc3c(=O)c(C(=O)O)cn1c23.O [LEVOFLOXACIN] | 0.5 µg/mL | 8 µg/mL | 0.25 µg/mL | 8 µg/mL | 0.03 µg/mL | 8 µg/mL | 0.5 µg/mL | 0.5 µg/mL |  | 0.008 µg/mL | 0.03 µg/mL | 0.25 µg/mL | 0.125 µg/mL | 0.25 µg/mL | 1 µg/mL | 32 µg/mL | 64 µg/mL |  |  | 0.5 µg/mL |  |
| Cc1c(N2CC[C@@H]([C@H](C)N)C2)c(F)cc2c(=O)n(N)c(=O)n(C3CC3)c12 | 0.13 µg/mL (≈ 0.36 µM) | 0.25 µg/mL (≈ 0.692 µM) | 0.125 µg/mL (≈ 0.346 µM) | 0.5 µg/mL (≈ 1.38 µM) | 1 µg/mL (≈ 2.77 µM) | 2 µg/mL (≈ 5.53 µM) | 2 µg/mL (≈ 5.53 µM) | 4 µg/mL (≈ 11.1 µM) | 1 µg/mL (≈ 2.77 µM) | 0.125 µg/mL (≈ 0.346 µM) | 0.25 µg/mL (≈ 0.692 µM) | 0.125 µg/mL (≈ 0.346 µM) | 0.06 µg/mL (≈ 0.166 µM) | 0.25 µg/mL (≈ 0.692 µM) | 0.125 µg/mL (≈ 0.346 µM) | 0.25 µg/mL (≈ 0.692 µM) | 1 µg/mL (≈ 2.77 µM) | 0.015 µg/mL (≈ 0.0415 µM) | 0.06 µg/mL (≈ 0.166 µM) | 0.015 µg/mL (≈ 0.0415 µM) | Activity (Escherichia coli [18]): Active; MIC (Escherichia coli [8]): 0.03 µg/mL (≈ 0.083 µM); MIC (Streptococcus pyogenes [19]): 0.015 µg/mL (≈ 0.0415 µM); MIC (Enterococcus faecalis [20]): 0.06 µg/mL (≈ 0.166 µM); ED50 (Streptococcus pyogenes [21]): 1.4 mg/kg; ED50 (Enterococcus faecalis [22]): 19 mg/kg; ED50 (Streptococcus pyogenes [23]): 0.27 mg/kg; ED50 (Enterococcus faecalis [24]): 4.2 mg/kg; Activity [25]: Active; Activity [26]: Active; IC50 (DNA gyrase): 200 nM; MIC (Escherichia coli [17]): 1 µg/mL (≈ 2.77 µM) |
| O=C(O)c1cn(C2CC2)c2cc(N3CCNCC3)c(F)cc2c1=O [CIPROFLOXACIN] | 2 µg/mL (≈ 6.04 µM) | 64 µg/mL (≈ 193 µM) | 0.5 µg/mL (≈ 1.51 µM) | > 64 µg/mL |  |  | 0.06 µg/mL (≈ 0.181 µM) | 0.06 µg/mL (≈ 0.181 µM) |  | 0.008 µg/mL (≈ 0.0241 µM) | 0.03 µg/mL (≈ 0.0905 µM) | 0.5 µg/mL (≈ 1.51 µM) | 0.13 µg/mL (≈ 0.392 µM) |  | 0.5 µg/mL (≈ 1.51 µM) | 32 µg/mL (≈ 96.6 µM) | > 64 µg/mL | 1 µg/mL (≈ 3.02 µM) | 64 µg/mL (≈ 193 µM) | 0.5 µg/mL (≈ 1.51 µM) |  |
| COc1c(N2CC[C@@H]([C@H](C)N)C2)c(F)cc2c(=O)n(N)c(=O)n(C3CC3)c12 | 0.25 µg/mL (≈ 0.662 µM) | 0.5 µg/mL (≈ 1.32 µM) | 0.25 µg/mL (≈ 0.662 µM) | 1 µg/mL (≈ 2.65 µM) | 8 µg/mL (≈ 21.2 µM) | 8 µg/mL (≈ 21.2 µM) | 4 µg/mL (≈ 10.6 µM) | 8 µg/mL (≈ 21.2 µM) | 4 µg/mL (≈ 10.6 µM) | 0.25 µg/mL (≈ 0.662 µM) | 1 µg/mL (≈ 2.65 µM) | 0.5 µg/mL (≈ 1.32 µM) | 0.13 µg/mL (≈ 0.344 µM) | 0.5 µg/mL (≈ 1.32 µM) | 0.13 µg/mL (≈ 0.344 µM) | 0.25 µg/mL (≈ 0.662 µM) | 1 µg/mL (≈ 2.65 µM) | 0.03 µg/mL (≈ 0.0795 µM) | 0.06 µg/mL (≈ 0.159 µM) | 0.03 µg/mL (≈ 0.0795 µM) | MIC (Escherichia coli [8]): 0.13 µg/mL (≈ 0.344 µM); MIC (Streptococcus pyogenes [19]): 0.03 µg/mL (≈ 0.0795 µM); MIC (Enterococcus faecalis [20]): 0.25 µg/mL (≈ 0.662 µM); ED50 (Streptococcus pyogenes [21]): 3.1 mg/kg; ED50 (Enterococcus faecalis [22]): 38 mg/kg; ED50 (Streptococcus pyogenes [23]): 1.2 mg/kg; ED50 (Enterococcus faecalis [24]): 11 mg/kg; IC50 (DNA gyrase): 600 nM; MIC (Escherichia coli [17]): 2 µg/mL (≈ 5.3 µM) |
